# Measurements from EP0973746B1, “SUBSTITUTED 3-CYANO QUINOLINES” (Wyeth Holdings Corporation, priority 1997, dated 1998).
# Like-named read-outs stand apart in the source and are kept apart here.
# Key:
# SKBR3 = test: Inhibition of cancer cell growth as measured by cell number, SKBR3; type: cell-based, human; settings: Homo sapiens, Table 7;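 note: SK-BR-3 cells were selected as a line overexpressing HER2/neu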
# From the text: (§1) The cell lines were chosen since they overexpressed epidermal growth factor receptor (EGFR) (i.e. A431) or HER2/neu (SKBR3), or had little to no expression of the these receptors (SW620, LOX, MCF7).
# A2780DDP = test: Inhibition of cancer cell growth as measured by cell number, A2780DDP; type: cell-based; settings: Homo sapiens, read-out: IC50 A2780DDP
# CACO2 = test: Inhibition of cancer cell growth as measured by cell number, CACO2; type: cell-based; settings: Homo sapiens, read-out: IC50 CACO2
# LS174T = test: Inhibition of cancer cell growth as measured by cell number, LS174T; type: cell-based; settings: Homo sapiens
# CX1 = test: Inhibition of cancer cell growth as measured by cell number, CX1; type: cell-based; settings: Homo sapiens, read-out: IC50 CX1
# B7474 = test: Inhibition of cancer cell growth as measured by cell number, B7474; type: cell-based; settings: Homo sapiens, read-out: IC50 B7474
# DU145 = test: Inhibition of cancer cell growth as measured by cell number, DU145; type: cell-based; settings: Homo sapiens, read-out: IC50 DU145
# COLO205 = test: Inhibition of cancer cell growth as measured by cell number, COLO205; type: cell-based; settings: Homo sapiens, read-out: IC50 COLO205
# LNCAP = test: Inhibition of cancer cell growth as measured by cell number, LNCAP; type: cell-based; settings: Homo sapiens
# A431 [1] = test: Inhibition of cancer cell growth as measured by cell number, A431; type: cell-based, human; settings: Homo sapiens, A-431, 48 h, Table 6;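 note: human A431 line, picked because it overexpresses epidermal growth factor receptor (EGFR)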
# From the text: as §1
# A549 = test: Inhibition of cancer cell growth as measured by cell number, A549; type: cell-based; settings: Homo sapiens, read-out: IC50 A549
# A27805 = test: Inhibition of cancer cell growth as measured by cell number, A27805; type: cell-based; settings: Homo sapiens, read-out: IC50 A27805
# A431 [2] = test: Inhibition of cell growth by incorporation of [3H]-thymidine, A431; type: cell-based, human; settings: Homo sapiens
# Method: (§2) Representative compounds of this invention were evaluated for their ability to inhibit the growth of the cell lines described below in vitro. The inhibition is quantitated by measuring the decrease in the incorporation of radio-labeled thymidine when the cells are grown in the presence of the inhibitor. […] Cells were routinely grown in a humidified incubator in 5% CO2 in air.
# (§3) Cells were seeded at 10,000 cells/well in 96 well plates in complete media and allowed to grow to log phase. At this stage the complete media was replaced with media containing 0.5% FBS (for cells growing in 10% FBS) or media lacking epidermal growth factor (EGF) (for cells growing in serum free media). […] Media with test compound was then removed and complete media was added back. The cells were allowed to grow for 18 hours. This is followed by incubation in [^3H]thymidine (1mCi/ml in serum/EGF media) for 4 hours. Cells were lysed in 0.5 M NaOH for at least 30 min at 37°C and radioactivity analyzed.
# (§4) The % inhibition of the compound evaluated was determined for at least three different concentrations and the IC50 value evaluated from the dose response curve. […] CPM(control) is in units of counts per minute and is a number expressing the amount of [^3H]thymidine incorporated onto the DNA when cells are grown in the absence of test compound as measured by liquid scintillation counting.
# LOX = test: Inhibition of cancer cell growth as measured by cell number, LOX; type: cell-based, human; settings: Homo sapiens, LOX, 48 h, Table 6;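 note: LOX cells served as a line with low or absent EGFR and HER2/neu expression, in contrast to receptor-overexpressing lines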
# From the text: as §1
# HL60 = test: Inhibition of cancer cell growth as measured by cell number, HL60; type: cell-based; settings: Homo sapiens, read-out: IC50 HL60
# T47D = test: Inhibition of cancer cell growth as measured by cell number, T47D; type: cell-based; settings: Homo sapiens
# NHEK = test: Inhibition of cell growth by incorporation of [3H]-thymidine, NHEK; type: cell-based, human; settings: Homo sapiens, read-out: IC50 NHEK
# Method: as §2, §3, §4
# MIP = test: Inhibition of cancer cell growth as measured by cell number, MIP; type: cell-based; settings: Homo sapiens; cell number, Sulforhodamine B, 48 hours exposure; Table 4; read-out: IC50 MIP
# HTB161 = test: Inhibition of cancer cell growth as measured by cell number, HTB161; type: cell-based; settings: Homo sapiens, read-out: IC50 HTB161
# HCT15 = test: Inhibition of cancer cell growth as measured by cell number, HCT15; type: cell-based; settings: Homo sapiens, read-out: IC50 HCT15
# CCRF-CFM = test: Inhibition of cancer cell growth as measured by cell number, CCRF-CFM; type: cell-based; settings: Homo sapiens, read-out: IC50 CCRF-CFM
# PC3 = test: Inhibition of cancer cell growth as measured by cell number, PC3; type: cell-based; settings: Homo sapiens, read-out: IC50 PC3
# [3] = biological target: epidermal growth factor receptor kinase (Homo sapiens, UniProt P00533); test: biochemical
# MCF7 = test: Inhibition of cancer cell growth as measured by cell number, MCF7; type: cell-based, human; settings: Homo sapiens, MCF7, 48 h, Table 5;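 note: MCF7 was included as a line with little or no EGFR or HER2/neu expression, in contrast to the receptor-overexpressing lines of the panel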
# From the text: as §1
# [4] = biological target: recombinant human MEK 1 (MAPKK) and recombinant human ERK2 (MAPK); test: Mitogen Activated Protein Kinase (MAPK) assay, two component coupled MEK 1 / ERK2; type: biochemical; settings: separate entries for the same compound = evaluated more than one time;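 note: MEK 1-activated ERK2 phosphorylates MBP or Myc peptide with 33P-ATP, filter capture and scintillation counting, inhibitor preincubated with ERK2 30 min at 0 °C, inhibition relative to uninhibited control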
# NEC = test: Inhibition of cancer cell growth as measured by cell number, NEC; type: cell-based; settings: Homo sapiens, read-out: IC50 NEC
# LX1 = test: Inhibition of cancer cell growth as measured by cell number, LX1; type: cell-based; settings: Homo sapiens, read-out: IC50 LX1
# SW620 = test: Inhibition of cancer cell growth as measured by cell number, SW620; type: cell-based, human; settings: Homo sapiens, SW-620, 48 h, Table 4;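 note: SW620 was included as a cell line with little or no EGFR or HER2/neu expression, in contrast to receptor-overexpressing lines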
# From the text: as §1
# CCL228 = test: Inhibition of cancer cell growth as measured by cell number, CCL228; type: cell-based; settings: Homo sapiens, read-out: IC50 CCL228
# SW948 = test: Inhibition of cancer cell growth as measured by cell number, SW948; type: cell-based; settings: Homo sapiens, read-out: IC50 SW948
# [5] = tested on: human epidermoid tumors (A431); test: In vivo inhibition of the growth of human epidermoid tumors (A431); settings: 80 mg/kg administered on days 1, 5, and 9, IP
# Method in brief: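 Female BALB/c nu/nu mice from Charles River were injected subcutaneously with 5 X 10^6 human epidermoid (A431) tumor cells. Once tumors weighed 100 to 150 mg, animals were randomized into treatment groups on day zero, and untreated controls were included. Tumor mass, calculated as (length X width^2)/2, was measured every 7 days for 28 days after staging. Relative growth was mean mass on days 7, 14, 21 and 28 divided by the day-zero mean.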
# [6] = cell number, Sulforhodamine B, 48 hours exposure, Table 4
# [7] = cell number, Sulforhodamine B, 48 hours exposure, Table 6
# Chain of epidermal growth factor receptor kinase (P00533 25-1210): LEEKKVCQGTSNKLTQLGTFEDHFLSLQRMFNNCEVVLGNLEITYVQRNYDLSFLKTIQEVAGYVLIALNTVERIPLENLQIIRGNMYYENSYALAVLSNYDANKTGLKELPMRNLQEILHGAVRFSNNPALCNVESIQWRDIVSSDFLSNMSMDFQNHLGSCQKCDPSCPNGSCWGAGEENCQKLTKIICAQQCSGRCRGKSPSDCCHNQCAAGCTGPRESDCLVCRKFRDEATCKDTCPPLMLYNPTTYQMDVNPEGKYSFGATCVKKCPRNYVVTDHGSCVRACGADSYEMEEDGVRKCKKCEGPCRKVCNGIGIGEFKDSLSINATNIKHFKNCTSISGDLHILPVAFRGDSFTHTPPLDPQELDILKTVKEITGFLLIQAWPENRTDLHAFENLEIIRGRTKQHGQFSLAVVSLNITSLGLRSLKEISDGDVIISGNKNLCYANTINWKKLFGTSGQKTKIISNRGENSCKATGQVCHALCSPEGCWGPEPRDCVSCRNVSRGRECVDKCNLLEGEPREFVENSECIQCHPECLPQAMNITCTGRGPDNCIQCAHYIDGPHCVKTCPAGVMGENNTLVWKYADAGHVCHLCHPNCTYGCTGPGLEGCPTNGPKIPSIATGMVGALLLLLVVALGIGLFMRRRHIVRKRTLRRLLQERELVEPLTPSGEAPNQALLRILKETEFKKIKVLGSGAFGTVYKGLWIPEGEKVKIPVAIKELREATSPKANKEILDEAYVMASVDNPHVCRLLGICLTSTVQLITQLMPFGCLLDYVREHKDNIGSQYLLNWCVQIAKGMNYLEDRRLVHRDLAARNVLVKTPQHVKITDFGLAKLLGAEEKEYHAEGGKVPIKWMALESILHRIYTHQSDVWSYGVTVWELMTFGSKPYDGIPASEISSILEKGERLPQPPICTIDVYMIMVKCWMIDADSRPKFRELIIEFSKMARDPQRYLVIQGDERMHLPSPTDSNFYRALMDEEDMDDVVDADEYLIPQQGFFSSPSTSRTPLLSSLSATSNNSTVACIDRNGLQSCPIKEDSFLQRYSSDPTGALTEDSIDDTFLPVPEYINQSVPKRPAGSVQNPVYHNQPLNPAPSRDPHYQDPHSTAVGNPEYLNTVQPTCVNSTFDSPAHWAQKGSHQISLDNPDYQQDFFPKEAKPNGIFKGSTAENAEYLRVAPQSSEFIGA
smiles,measurement,setting,value
"CCCC(=O)Nc1ccc2ncc(C#N)c(Nc3cccc(Br)c3)c2c1 [Example 17, N-[4-[(3-Bromophenyl)amino]-3-cyano-6-quinolinyl] butanamide]",IC50,"SKBR3; SK-BR-3, cell number, Sulforhodamine B, 48 hours exposure, read-out: IC50 SKBR3",79.7 µg/mL
same,IC50,A2780DDP; [6],60.4 µg/mL
same,IC50,"CACO2; Caco-2, cell number, Sulforhodamine B, 48 hours exposure, Table 5",5.63 µg/mL
same,IC50,"LS174T; cell number, Sulforhodamine B, 48 hours exposure, Table 5, read-out: IC50 LS174T",87 µg/mL
same,IC50,"CX1; CX-1, cell number, Sulforhodamine B, 48 hours exposure, Table 4",81.9 µg/mL
same,IC50,B7474; [7],95.7 µg/mL
same,IC50,"DU145; DU-145, cell number, Sulforhodamine B, 48 hours exposure, Table 7",7.81 µg/mL
same,IC50,"COLO205; COLO 205, cell number, Sulforhodamine B, 48 hours exposure, Table 4",> 100 µg/mL
same,IC50,"LNCAP; cell number, Sulforhodamine B, 48 hours exposure, Table 7, read-out: IC50 LNCAP",90 µg/mL
same,IC50,"A431 [1]; cell number, Sulforhodamine B, 48 hours exposure, read-out: IC50 A431",38.1 µg/mL
same,IC50,"A549; A549, cell number, Sulforhodamine B, 48 hours exposure, Table 6",> 100 µg/mL
same,IC50,A27805; [6],9.8 µg/mL
same,IC50,"A431 [2]; A-431, [3H]-thymidine incorporation, A431, read-out: IC50 A431",25 µM
same,IC50,"LOX; cell number, Sulforhodamine B, 48 hours exposure, read-out: IC50 LOX",74.2 µg/mL
same,IC50,"HL60; HL-60, cell number, Sulforhodamine B, 48 hours exposure, Table 7",> 100 µg/mL
same,IC50,"T47D; cell number, Sulforhodamine B, 48 hours exposure, Table 6, read-out: IC50 T47D",> 100 µg/mL
same,IC50,NHEK; [3H]-thymidine incorporation,9 µM
same,IC50,MIP,100 µg/mL
same,IC50,HTB161; [6],7.89 µg/mL
same,IC50,"HCT15; HCT-15, cell number, Sulforhodamine B, 48 hours exposure, Table 5",98.9 µg/mL
same,IC50,"CCRF-CFM; cell number, Sulforhodamine B, 48 hours exposure, Table 7",> 100 µg/mL
same,IC50,"PC3; PC-3, cell number, Sulforhodamine B, 48 hours exposure, Table 7",> 100 µg/mL
same,IC50,[3],9 µM
same,IC50,"MCF7; cell number, Sulforhodamine B, 48 hours exposure, read-out: IC50 MCF7",68.2 µg/mL
same,IC50,[4],> 100 µM
same,IC50,NEC; [7],> 100 µg/mL
same,IC50,"LX1; LX-1, cell number, Sulforhodamine B, 48 hours exposure, Table 6",> 100 µg/mL
same,IC50,"SW620; cell number, Sulforhodamine B, 48 hours exposure, read-out: IC50 SW620",> 100 µg/mL
same,IC50,"CCL228; cell number, Sulforhodamine B, 48 hours exposure, Table 5",> 100 µg/mL
same,IC50,"SW948; SW948, cell number, Sulforhodamine B, 48 hours exposure, Table 5",> 100 µg/mL
"C=CC(=O)Nc1ccc2ncc(C#N)c(Nc3cccc(Br)c3)c2c1 [Example 18, N-[4-[(3-Bromophenyl)amino]-3-cyano-6-quinolinyl]-2-propenamide]",IC50,"SKBR3; SK-BR-3, 48 h, read-out: IC50 SKBR3, cell number, Sulforhodamine B, 48 hours exposure",1.85 µg/mL
same,IC50,A2780DDP; 48 h,0.884 µg/mL
same,IC50,"CACO2; Caco-2, 48 h",0.576 µg/mL
same,IC50,"LS174T; 48 h, read-out: IC50 LS174T",1.59 µg/mL
same,IC50,"CX1; CX-1, 48 h",1.56 µg/mL
same,IC50,B7474; 48 h,0.152 µg/mL
same,IC50,"DU145; DU-145, 48 h",0.322 µg/mL
same,IC50,"COLO205; COLO 205, 48 h",1.9 µg/mL
same,IC50,"LNCAP; 48 h, read-out: IC50 LNCAP",0.146 µg/mL
same,IC50,"A431 [1]; read-out: IC50 A431, cell number, Sulforhodamine B, 48 hours exposure",0.249 µg/mL
same,IC50,"A549; A549, 48 h",1.61 µg/mL
same,IC50,A27805; 48 h,0.628 µg/mL
same,IC50,"A431 [2]; A-431, read-out: IC50 A431",1e-05 µM
same,IC50,"LOX; read-out: IC50 LOX, cell number, Sulforhodamine B, 48 hours exposure",0.0851 µg/mL
same,IC50,"HL60; HL-60, 48 h",1.43 µg/mL
same,IC50,"T47D; 48 h, read-out: IC50 T47D",1.31 µg/mL
same,IC50,NHEK,0.007 µM
same,IC50,MIP,1.47 µg/mL
same,IC50,HTB161; 48 h,0.415 µg/mL
same,IC50,"HCT15; HCT-15, 48 h",1.67 µg/mL
same,IC50,CCRF-CFM; 48 h,1.04 µg/mL
same,IC50,"PC3; PC-3, 48 h",2.35 µg/mL
same,IC50,[3],2.1e-05 µM
same,IC50,"MCF7; read-out: IC50 MCF7, cell number, Sulforhodamine B, 48 hours exposure",2.17 µg/mL
same,IC50,[4],> 100 µM
same,IC50,NEC; 48 h,1.41 µg/mL
same,IC50,"LX1; LX-1, 48 h",1.12 µg/mL
same,IC50,"SW620; read-out: IC50 SW620, cell number, Sulforhodamine B, 48 hours exposure",1.4 µg/mL
same,IC50,CCL228; 48 h,1.17 µg/mL
same,IC50,"SW948; SW948, 48 h",1.94 µg/mL
same,reduced tumor size,[5]; day 7,29%
same,reduced tumor size,"[5]; day 14, p <0.01",45%
same,Tumor growth versus control,[5]; days 21 and 28,not reduced versus control
